Source: patent US8399416B2, “Method of using heparin binding motif for treating asthma” (National Tsing Hua University, priority 2008, dated 2013)
Numbering of substitutions follows the chain as printed. No end group written: not given here.

Key:
ECP wt = biological target: T1, ECP wt (Homo sapiens, UniProt P12724); assay: Intrinsic tryptophan fluorescence titration of ECP wt with heparin oligosaccharides; format: binding; settings: read-out: Kd, ECP wt, PBS at 25° C.
T1 construct: His6 (C); made in house; host or cells: E. coli BL21-CodonPlus (DE3)
T1 sequence (P12724 28-160): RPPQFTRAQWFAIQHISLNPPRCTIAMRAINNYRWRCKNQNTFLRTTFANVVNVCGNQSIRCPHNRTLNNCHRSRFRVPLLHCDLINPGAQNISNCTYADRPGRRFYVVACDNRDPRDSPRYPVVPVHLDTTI
Method: (§1) FIG. 5. ITFE profiles of ECP wt and mt1 with dp5. Tryptophan titration emission spectra of […] ECP wt or mt1 bound with dp5. The emission spectra at 340 nm were recorded. The resulting isotherms were fitted by nonlinear regression least-squares computer fit using the KaleidaGraph Synergy Software. ΔF, the relative fluorescence change, equals F0−Fobs, where F0 and Fobs represent the initial and observed fluorescence values, respectively.
(§2) The binding affinities of wild-type and mutant ECP for heparin oligosaccharides were subsequently monitored by intrinsic tryptophan fluorescence titration (Lau, E. K., et al. (2004) The Journal of biological chemistry 279, 22294-22305).
(§3) Binding of ECP to heparin was monitored by changes in intrinsic tryptophan fluorescence emission (IFTE). ECP (200 nM) in PBS at 25° C. was titrated with small aliquots of a high concentration of pentasaccharides with minimal dilution (<2%). Protein fluorescence measurements were recorded 2 min after each addition on a Hitachi 8000 spectrofluorimeter at emission wavelength of 340 nm using an excitation wavelength of 280 nm. ΔF, the relative fluorescence change, equals F0−Fobs, where F0 and Fobs represent the initial and observed fluorescence values, respectively. […]

C1 peptide = C1 peptide (Homo sapiens, UniProt P12724); assay: Tryptophan fluorescence titration of C1 peptide with heparin oligosaccharides; format: binding; settings: read-out: Kd, C1 peptide; 1 μM peptide; tryptophan fluorescence at 340 nm
Method: FIG. 10. Titration profiles of synthetic peptides by synthetic heparin oligosaccharides. Titrations were carried out on 1 μM peptides in the presence of heparin oligosaccharides. The Kd of each peptide-oligosaccharide interaction was determined by measuring the fluorescence change of intrinsic tryptophan at 340 nm. Data were fitted to a single-binding-site curve using nonlinear least-squares analysis.
as §3

ECP mt1 = biological target: T2, ECP mt1 (Homo sapiens, UniProt P12724, K65A/R61A/R63A/W62A); assay: Intrinsic tryptophan fluorescence titration of ECP mt1 with heparin oligosaccharides; format: binding; settings: read-out: Kd, ECP mt1, PBS at 25° C.
T2 construct: recombinant mature ECP was injected into the rat circulation; His6 (C); made in house; host or cells: E. coli BL21-CodonPlus(DE3)
T2 sequence (P12724 28-160 R61A/W62A/R63A/K65A): T1 sequence (P12724 28-160) with R34A, W35A, R36A, K38A
Method: as §1
Amino acid residues R34, W35, R36, and K38 of ECP were simultaneously substituted to alanine using QuickChange site-directed mutagenesis (Stratagene, La Jolla, Calif.) and the resultant mutant was named ECP mt1. […]
as §2
as §3, with “ECP (200 nM) in PBS at 25° C. was titrated with small aliquots of a high concentration of pentasaccharides with minimal dilution (<2%).” left out

[1] = PBS buffer at 25° C.; HMWH 10-20 μM
Method: FIG. 11. Isothermal titration calorimetry of heparin-peptide interaction. The top panels show the differential power time course. Raw data for sequential 6-μl injections of each synthetic peptide in PBS buffer at 25° C. TAT (positive control), B, R1 (negative control), C, C1, and D, D1 into the sample cell containing 1.4 ml HMWH solution (10-20 μM). The total heat released in each injection is proportional to the area under the corresponding peak. […] The solid line represents a non-linear least squares of the reaction heat for the injection.

Beas-2B cells = settings: biotinylated peptides, 1 h at 4° C.
Method: FIG. 7. Synthetic peptides inhibit ECP binding to cells. A, Beas-2B cells were preincubated with peptides in RPMI 1640 medium for 30 min at 4° C. before incubation with MBP-ECP for an additional 1 h. After treatment, the cells were washed with PBS and fixed with PFA. The level of bound MBP-ECP was assessed by ELISA. The amount of MBP-ECP bound to cells without peptide treatment was set to 100%. The data shown are the means of triplicate experiments. B, Beas2-B cells were incubated with biotinylated peptides for 1 h at 4° C. The amount of peptides bound to cells was assessed as for FIG. 3.
To investigate whether the RWRCK (SEQ ID NO: 8) motif is directly responsible for heparin binding, cell ELISA was conducted using a synthetic peptide, C1 (SEQ ID NO: 3), along with a positive control peptide derived from HIV-TAT, TAT (SEQ ID NO: 6) (Vives, E., et al. (1997) The Journal of biological chemistry 272, 16010-16017; Ziegler, A. and Seelig, J. (2004) Biophysical journal 86, 254-263). […] Therefore, synthetic peptides with heparin binding activity may compete with ECP for cellular binding. Furthermore, the cell surface binding ability of peptides was tested using cell ELISA assay.

[2] = AMAC-labeled LMWH, increasing peptide concentrations, room temperature 15 min
Method: FIG. 9. FACE analysis of synthetic peptides. AMAC-labeled LMWH were incubated without or with increasing concentrations of C1, TAT, D1 and R1 peptides at room temperature for 15 min. Samples were loaded and separated by agarose gel electrophoresis as described for FIG. 2.
Synthetic heparin oligosaccharide (FIG. 1) (Lee, C. J., et al. (2004) J Am Chem Soc 126, 476-477), low molecular weight heparin (LMWH) and PI-88 (kindly provided by Progen Inc., Australia) were labeled with 2-aminoacridone (AMAC) as described (Calabro, A., et al. (2000) Glycobiology 10, 273-281). AMAC-oligosaccharide and proteins were incubated at room temperature for 15 min, loaded onto 1% gels and electrophoresed as described (Holmes, O., et al. (2007) J Mol Biol 367, 395-408).
In addition, because EDN contains a conventional heparin binding sequence, the corresponding peptide, D1 (SEQ ID NO: 4), was also synthesized and tested.

[3] = system: peri-bronchiolar and alveolar inflammation; parameters: species or system mice; settings: mouse, in vivo
Source text: FIG. 15. Tissue pathology staining in mice. 5-μm formalin-fixed lung sections were stained with H & E in (A) control (B) mIT, (C) eIN, (D) eIN+mIT, (E) mIT+eIN and (F) eIN+mIT+eIN mice. (G) Peribronchial and alveolar inflammation scores.
Animals Study protocol Female Balb/c mice 8 weeks of age were obtained from the National Laboratory Breeding Research Center in Taiwan and were raised in a specific pathogen-free environment. The mice were divided into six groups: (1) control, (2) mite intra-tracheal (mIT) alone, (3) ECP^32-41 (SEQ ID NO: 9) intranasal, (eIN) alone, (4) pre-treated group: eIN+mIT, (5) post-treated group: mIT+eIN and (6) pre+post-treated group eIN+mIT+eIN. Mite crude extract allergen (1.6 μg/μl) was prepared and well emulsified in complete Freund's adjuvant (CFA; Sigma, St Louis, Mo., USA) at a ratio of 1:1 at 4° C. The mIT, eIN and eIN+mIT groups were immunized subcutaneously with 50 μl emulsified mite protein on day 1 and day 8. […]
Histopathological analysis Lung sections stained with hematoxylin and eosin (H&E) were assigned a unit value for alveolar, peri-bronchiolar and total inflammation by computing the means of three independent scores for three randomly selected view-fields. […] Total inflammatory scores were determined as the sum of the peri-bronchiolar and alveolar inflammatory scores. […]

[4] = system: ECP binding to Beas-2B cells; assay: Competitive inhibition of MBP-ECP binding to Beas-2B cells (cell ELISA); format: cell-based, human; settings: Beas-2B cells preincubated with peptides 30 min at 4° C.
Method: FIG. 3. Heparin oligosaccharides inhibit ECP binding to cells. […] The amount of MBP-ECP bound to cells without GAG treatment was set to 100%. C, control (cells were incubated with MBP.) The data shown are the means of triplicate experiments.
FIG. 7. Synthetic peptides inhibit ECP binding to cells. […] The data shown are the means of triplicate experiments.
Beas-2B, a human bronchial epithelial cell line, was cultured in RPMI 1640 medium (Sigma-Aldrich) supplemented with heat-inactivated 10% fetal bovine serum (Gibco/Invitrogen, Carlsbad, Calif.).
The ability of MBP-ECP to bind cells in the presence of serial dilutions of oligosaccharides or peptides was determined as described (Fan, T. C., et al. (2007) Traffic 8, 1778-1795). At the present invention, synthetic heparins (dp3-9) were tested for their ability to interfere with ECP binding to Beas-2B cells. Briefly, confluent monolayers of Beas-2B cells in 96-well plates were pretreated with various concentrations of oligosaccharides or peptides in serum-free RPMI 1640 medium at 4° C. for 30 min before incubation with 5 μg/ml MBP-ECP at 4° C. for 1 h. The cells were then washed with ice-cold PBS and fixed with 2% PFA at room temperature for 15 min prior to blocking with 2% BSA/PBS at room temperature for 90 min. The level of bound MBP-ECP was quantified by ELISA analysis. MBP-ECP was detected using mouse monoclonal anti-MBP and goat anti-mouse horseradish peroxidase (HRP)-conjugated secondary antibody, followed by the enhanced chemiluminescence detection system. The amount of MBP-ECP bound to cells without oligosaccharide or peptide treatment was set to 100%.

CO[C@H]1O[C@H](COS(=O)(=O)O)[C@@H](O[C@@H]2O[C@@H](C(=O)O)[C@@H](O[C@H]3O[C@H](COS(=O)(=O)O)[C@@H](O[C@@H]4O[C@@H](C(=O)O)[C@@H](O[C@H]5O[C@H](COS(=O)(=O)O)[C@@H](O[C@@H]6O[C@@H](C(=O)O)[C@@H](O[C@H]7O[C@H](COS(=O)(=O)O)[C@@H](O[C@@H]8O[C@@H](C(=O)O)[C@@H](O[C@H]9O[C@H](COS(=O)(=O)O)[C@@H](O)[C@H](O)[C@H]9NS(=O)(=O)O)[C@H](O)[C@H]8OS(=O)(=O)O)[C@H](O)[C@H]7NS(=O)(=O)O)[C@H](O)[C@H]6OS(=O)(=O)O)[C@H](O)[C@H]5NS(=O)(=O)O)[C@H](O)[C@H]4OS(=O)(=O)O)[C@H](O)[C@H]3NS(=O)(=O)O)[C@H](O)[C@H]2OS(=O)(=O)O)[C@H](O)[C@H]1NS(=O)(=O)O [dp9] gave a Kd (ECP wt) of 62.6 nM, a Kd (C1 peptide) of 229 nM and a Kd (ECP mt1) of 400 nM.
With MTQGRCKPVNK-biotin [R1] the “heat release on binding to HMWH (ITC)” value [1] was “no heat release”, the “cell surface binding ability of peptides” value (Beas-2B cells) was “devoid of such function” and the “interaction with LMWH (FACE)” value [2] was “did not bind heparin”.
With NYRWRCKNQN [ECP^32-41] the “allergic airway inflammatory pathologies (H&E)” value [3] was “did not demonstrate allergic airway inflammatory pathologies”.
In the case of NYRWRCKNQNK-biotin [C1], the “heat release on binding to HMWH (ITC)” value [1] is reported as “exothermal reaction modes were clearly observed”, the “cell surface binding ability of peptides” value (Beas-2B cells) is reported as “bound to the cell surface” and the “interaction with LMWH (FACE)” value [2] is reported as “decreased amount of free AMAC-LMWH signal”. For the same compound, the “binding of MBP-ECP to cell-surface HS in the presence of peptide” value [4] was “significantly reduced”.
For YGRKKRRQRRRK-biotin [TAT], the “heat release on binding to HMWH (ITC)” value [1] was “significant exothermal reaction mode”, the “cell surface binding ability of peptides” value (Beas-2B cells) was “bound to the cell surface” and the “interaction with LMWH (FACE)” value [2] was “decreased amount of free AMAC-LMWH signal”. For the same compound, the “binding of MBP-ECP to cell-surface HS in the presence of peptide” value [4] was “significantly reduced”.
